The values that follow come from patent US20210000757A1, “TOPICAL COMPOSITION” (Futura Medical Developments Limited, priority 2017, published 2021).

A short description of data set [1]: Safety and pharmacokinetic study of different GTN concentrations compared with sub-lingual Nitrostat. Type of data set: in vivo, human.
Data set [2] concerns mitochondrial and cytosolic aldehyde dehydrogenase. Particulars: in vitro; cited from earlier work.

With `O=[N+]([O-])OCC(CO[N+](=O)[O-])O[N+](=O)[O-]` [GTN, Glyceryl trinitrate], the “plasma concentration versus dosage level” value in data set [1] (in vivo) is “increased proportionally with increasing dosage level”. In data set [1] (male, human, in vivo, topical or ocular, pharmacokinetic modelling, topical gel, read-out: Tmax of initial zero order entry into systemic circulation), the Tmax lay in the range of 10 to 12 min. Moreover, in data set [1] (pharmacokinetic modelling, topical gel), the “first appearance of GTN after application (lag time)” value is “around 4 minutes”. In addition, in data set [2], the “time of peak rate of formation of nitric oxide from GTN” value is given as “approximately 100 seconds”.

Broadly, the Tmax is the time at which the peak concentration occurs.
